# Measured values as given in patent publication US20200046720A1, “ENGINEERED BIOCOMPATIBLE ANTIBIOTIC PARTICLES AND THEIR USE AGAINST URINARY TRACT INFECTION” (The University of North Carolina at Chapel Hill, priority 2016, published 2020).
# What was measured:
# E. coli UT189 [1] = assay: Tissue culture-based microbial inhibition assay, intracellular E. coli infection of bladder epithelial cells; type: cell-based, Escherichia coli; details: cultured bladder epithelial cells
# Method: FIGS. 3A-D show PRINT-Levofloxacin provides prolonged protection against intracellular E. coli infection. UROTSA bladder epithelial cell monolayers were incubated with media, free levofloxacin (FREE LEVO), blank PRINT particles (BLANK PRINT), or a formulation of PRINT encapsulated levofloxacin (PRINT-LEVO) for 1 hour. Each treatment was removed, the cells were washed, and the cells were immediately infected with E. coli UT189 (FIG. 3A), 8 hours later (FIG. 3B), or 18 hours later (FIG. 3C). After 1 hour of infection with E. coli, the medium was replaced with medium containing gentamicin to eliminate extracellular bacteria. Viable bacteria in the bladder epithelial cells were enumerated 24 hours later. The formulations and associated sizes and charges are shown for reference (FIG. 3D). Tissue culture-based microbial inhibition assays-Bladder epithelial cell lines 5637 and UROTSA have been previously described. Tissue culture cells were growth in RPMI 1640 media to 80% confluence and lifted using trypsin-EDTA (Sigma-Aldrich). Twenty four well plates (Genesee Scientific) were seeded with 5637 cells and grown for 2 days at 37° C., 5% CO2 prior to infections. Where appropriate to the assay conditions, unencapsulated (“free”) levofloxacin was added to the wells one hour prior to infection and at the same concentration as wells treated with PRINT-levofloxacin particles. […]
# E. coli UT189 [2] = assay: Rat spinal cord injury UTI infection model; type: in vivo, Escherichia coli; details: female SCI rats, single intracystic dose, drained after 1 hour, infected 8 hours later, bladder and kidney
# Method: FIGS. 6A-C show PRINT-LEVO provides sustained protection against E. coli UTI in the SCI rat. Female SCI rats were treated by transurethral catheterization and instillation of a volume equivalent to their previously determined residual urine volume containing PBS, PBS with free levofloxacin (5 μg/ml), PRINT-LEVO (formula D5), or BLANK PRINT particles (wt/vol equivalent to PRINT-LEVO). After 1 hour of treatment, all animals had their bladder creded to remove each treatment. The animals were infected with E. coli at increasing time intervals following the administration and drainage of the test or control agents from the bladder: 4 hours (FIG. 6A), 8 hours (FIG. 6B), or 18 hours (FIG. 6C). Bacteria were counted in the bladders and kidneys 24 hours after infection with E. coli by tissue homogenization and plating of dilutions on solid agar medium. Horizontal bars indicate the geometric means.
# As described previously, female Sprague-Dawley rats (Harlan; 175-200 gm) underwent controlled surgical T10 spinal cord transection to model spinal cord injury and produce a neurogenic bladder phenotype. […] Due to the spinal cord injury and subsequent neurogenic bladder phenotypes, animals were routinely monitored and creded to relieve urinary retention each 12 hours. […]
compound,measurement,setting,value
"C[C@H]1COc2c(N3CCN(C)CC3)c(F)cc3c(=O)c(C(=O)O)cn1c23 [free levofloxacin, levofloxacin]",time to loss of significant effectiveness after a single dose,E. coli UT189 [1],≤ 1 h
same,"protection against E. coli infection (animals infection-free), 8 hour delay",E. coli UT189 [2],12.5%
